The results in this text go back to paper PMC4858151, “Phosphorylation of Human Choline Kinase Beta by Protein Kinase A: Its Impact on Activity and Inhibition” (PLoS ONE, 2016).

The target in this experiment is T1, choline kinase beta (CKβ) (Homo sapiens, UniProt Q9Y259).
T1 construct: gene CHKB; recombinant CKβ, in vitro phosphorylated by PKA (Ser39/Ser40)
The experiment in a line: PK-LDH coupled enzyme assay, IC50 at […] choline converted to Ki. The experiment is classed as biochemical.

SMILES strings stand for the structures.

In general, Ki refers to the equilibrium dissociation constant of an inhibitor or competing ligand from its target. A lower Ki goes with higher affinity.

T1 sequence (Q9Y259 2-395): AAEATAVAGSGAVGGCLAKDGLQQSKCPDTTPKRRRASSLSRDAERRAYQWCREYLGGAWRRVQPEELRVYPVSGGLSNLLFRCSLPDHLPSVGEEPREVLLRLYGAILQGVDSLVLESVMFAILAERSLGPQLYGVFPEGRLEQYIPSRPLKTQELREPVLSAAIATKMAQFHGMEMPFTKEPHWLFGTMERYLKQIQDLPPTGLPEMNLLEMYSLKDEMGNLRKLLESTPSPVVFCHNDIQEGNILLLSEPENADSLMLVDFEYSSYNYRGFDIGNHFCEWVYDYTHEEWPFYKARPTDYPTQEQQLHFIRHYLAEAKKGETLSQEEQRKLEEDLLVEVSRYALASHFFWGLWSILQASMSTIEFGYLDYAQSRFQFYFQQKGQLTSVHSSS

As to `C[N+]1(C)CCOC(O)(c2ccc(-c3ccc(C4(O)C[N+](C)(C)CCO4)cc3)cc2)C1` (stereo not shown) [HC-3, Hemicholinium-3], affinity was put at a Ki of 4.7 µM.
